Data taken from patent publication US8492087B2, “Method of judging risk for onset of drug-induced granulocytopenia” (Otsuka Pharmaceutical Co., Ltd., priority 2003, dated 2013).

Test system: human IRS-2 gene
Experiment: Association analysis of human IRS-2 gene polymorphisms and granulocytopenia induced by vesnarinone administration
Type: in vivo
Settings: subjects who had received vesnarinone
From the text: In order to find genetic polymorphisms in relation to granulocytopenia attributed to drug administration, there were employed subjects who had received vesnarinone (3,4-dihydro-6-[4-(3,4-dimethoxybenzoy1)-1-piperaziny1]-2(1H)-quinoline).
Among subjects who had received vesnarinone, had orally agreed to cooperate with investigation of the cause for vesnarinone-induced granulocytopenia between May 1991 and October 1996, and had accepted to provide a blood sample, there were employed 84 subjects (male/female ratio=1.21:1) who had again agreed in writing to cooperate with genetic analysis according to ethical guidelines between July 2001 and December 2001. Genomic DNA was extracted from a blood sample (or a cell sample derived therefrom) of each of the subjects who had again agreed described above. through a common method, and was employed for the below-described tests.
Among the subjects, subjects having leukocytes or neutrophils which were decreased to half or less following vesnarinone administration, and having the number of leukocytes of 2,000/mm^3 or less, or the number of neutrophils of 1,000/mm^3 or less were classified as “subjects with granulocytopenia”.
Each of these groups was further classified into two groups according to sex, to thereby become four subgroups; i.e., a group of 13 male with granulocytopenia (group A), a group of 17 female with granulocytopenia (group B), a group of 33 male without granulocytopenia (group C), and a group of 21 female without granulocytopenia (group D).
The allele frequencies in the group of subjects with granulocytopenia were compared to that of subjects without granulocytopenia by the contingency χ square test. The odds ratio was estimated through the Brown method (Brown, C. C., Am. J. Epidemiol., 113: 474-480 (1981)). The 95% confidence interval of odds ratio was calculated through the Woolf method.
In order to determine the genotype distribution, all polymorphisms identified by the discovery above were analyzed in the all subjects described in Example 1 by amplifying the regions containing the polymorphisms with primer sets and sequencing the PCR products under the condition described above.
In addition to the statistical methods employed in Example 1, a pair-wise linkage disequilibrium coefficient (D′=D/Dmax or D/Dmin) was calculated by use of the method by Thompson, et al. (Thompson, E. A., et al., Am. J. Hum. Genet. 42: 113-124 (1988))

subjects with agranulocytosis N (%) (IRS-2 A15870G genotype AA, total 27): 10 (37.0) N (%) | subjects without agranulocytosis N (%) (IRS-2 A15870G genotype AA, total 49): 36 (73.5) N (%) | subjects with agranulocytosis N (%) (IRS-2 A15870G genotype AG + GG, total 27): 17 (63.0) N (%) | subjects without agranulocytosis N (%) (IRS-2 A15870G genotype AG + GG, total 49): 13 (26.5) N (%) | subjects with agranulocytosis N (%) (IRS-2 A29793G genotype AA, total 30): 11 (36.7) N (%) | subjects without agranulocytosis N (%) (IRS-2 A29793G genotype AA, total 53): 39 (73.6) N (%) | subjects with agranulocytosis N (%) (IRS-2 A29793G genotype AG + GG, total 30): 19 (63.3) N (%) | subjects without agranulocytosis N (%) (IRS-2 A29793G genotype AG + GG, total 53): 14 (26.4) N (%) | subjects with agranulocytosis N (%) (IRS-2 A-1164C genotype AA, total 30): 8 (26.7) N (%) | subjects without agranulocytosis N (%) (IRS-2 A-1164C genotype AA, total 49): 29 (59.2) N (%) | subjects with agranulocytosis N (%) (IRS-2 A-1164C genotype AC + CC, total 30): 22 (73.3) N (%) | subjects without agranulocytosis N (%) (IRS-2 A-1164C genotype AC + CC, total 49): 20 (40.8) N (%) | subjects with agranulocytosis N (%) (IRS-2 AT-2510del genotype AT, total 29): 7 (24.1) N (%) | subjects without agranulocytosis N (%) (IRS-2 AT-2510del genotype AT, total 49): 28 (57.1) N (%) | subjects with agranulocytosis N (%) (IRS-2 AT-2510del genotype ATdel + del, total 29): 22 (75.9) N (%) | subjects without agranulocytosis N (%) (IRS-2 AT-2510del genotype ATdel + del, total 49): 21 (42.9) N (%) | subjects with agranulocytosis N (%) (IRS-2 C31532del genotype CC, total 27): 9 (33.3) N (%) | subjects without agranulocytosis N (%) (IRS-2 C31532del genotype CC, total 48): 34 (70.8) N (%) | subjects with agranulocytosis N (%) (IRS-2 C31532del genotype Cdel + del, total 27): 18 (66.7) N (%) | subjects without agranulocytosis N (%) (IRS-2 C31532del genotype Cdel + del, total 48): 14 (29.2) N (%) | subjects with agranulocytosis N (%) (IRS-2 C-4587A genotype CA + AA, total 28): 21 (75.0) N (%) | subjects without agranulocytosis N (%) (IRS-2 C-4587A genotype CA + AA, total 49): 20 (40.8) N (%) | subjects with agranulocytosis N (%) (IRS-2 C-4587A genotype CC, total 28): 7 (25.0) N (%) | subjects without agranulocytosis N (%) (IRS-2 C-4587A genotype CC, total 49): 29 (59.2) N (%)
Structure (SMILES): COc1ccc(C(=O)N2CCN(c3ccc4c(c3)CCC(=O)N4)CC2)cc1OC [vesnarinone, 3,4-dihydro-6-[4-(3,4-dimethoxybenzoy1)-1-piperaziny1]-2(1H)-quinoline]
